Experimental data: PubChem BioAssay AID651630 (Sanford-Burnham Center for Chemical Genomics, 2012)
Activity calls are given as the source filed them.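 How the source made its calls: active means lipid-stain IC50 at or below a set limit, with nuclear-stain toxicity IC50 at least five times higher; inactive means the rest.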

How the values were obtained:
[1] = system: DAPI; test: triacylglycerol accumulation inhibitor potency, dose response, cell-based, panel, Nile Red and DAPI fluorescence, H9c2 (AID 651630); settings: H9c2 cells, DAPI nuclear fluorescence (cytotoxicity counter-readout), oleic acid;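 further: cells exposed to compound overnight before fixation and staining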
[2] = system: TAG; test: as above; settings: H9c2 cells, Nile Red TAG fluorescence, oleic acid

Structure (SMILES) | IC50 cytotoxicity (DAPI nuclear signal decrease) ([1]; mean of runs) | IC50 cytotoxicity (DAPI nuclear signal decrease) ([1]; run 1) | IC50 cytotoxicity (DAPI nuclear signal decrease) ([1]; run 2) | IC50 ([2]; mean of runs) | IC50 ([2]; run 1) | IC50 ([2]; run 2)
Cc1cc(N/N=C\c2ccc(Br)cc2)nc(-n2nc(C)cc2C)n1 | > 25 µM (inactive) | > 25 µM | > 25 µM | > 25 µM (inactive) | > 25 µM | > 25 µM
CCC(C)Nc1nc(-c2cccc(OC)c2O)nc2ccccc12 (configuration not stated) | > 25 µM (inactive) | > 25 µM | > 25 µM | > 25 µM (inactive) | > 25 µM | > 25 µM
CC1(C)Cc2c(C#N)c(SCC(=O)c3ccccc3)nc(N3CCOCC3)c2CS1 | > 25 µM (inactive) | > 25 µM | > 25 µM | 19.3 µM (inactive) | 19.5 µM | 19.1 µM
CC(C)c1ccc(NC(=O)Nc2nc(C(N)C3CCCCC3)cs2)cc1 (configuration not stated) | 17.3 µM (inactive) | 16 µM | 18.6 µM | 8.38 µM | 8.24 µM | 8.53 µM
COc1ccc(CNC(=O)c2ccc(N3CCC4(CC3)CC(c3ccc(Cl)cc3)=NO4)c(NC(=O)Cc3ccc(F)cc3)c2)cc1 | > 25 µM (inactive) | > 25 µM | > 25 µM | > 25 µM (inactive) | > 25 µM | > 25 µM
COc1ccc(NC(=O)O[C@@H](C)[C@@H]2CN3CCc4c([nH]c5ccc(-c6ccc(OC)cc6)cc45)[C@@H]3C[C@@H]2N(C)C(=O)Nc2ccc(OC)cc2)cc1 | > 25 µM (inactive) | > 25 µM | > 25 µM | 8.04 µM | 7.66 µM | 8.42 µM
C=CCC[C@H](Cc1ccc(F)cc1)C(=O)OC[C@@H](NC(=O)[C@@H](CC=C)CC(=O)N(CCO)Cc1ccccc1)C(C)(C)C |  | > 25 µM | > 25 µM | 2.94 µM | 2.57 µM | 3.32 µM
C=CC[C@@H](CC(=O)N(CCO)Cc1ccccc1)C(=O)N[C@H](COC(=O)[C@@H](CC=C)CC(=O)OC(C)(C)C)Cc1ccccc1 | > 25 µM (inactive) | > 25 µM | > 25 µM | 5.86 µM | 5.71 µM | 6.02 µM
NC(Cc1ccc(C(F)(F)F)cc1)c1csc(Nc2nncc3ccccc23)n1 (configuration not stated) | 21.4 µM (inactive) | 21.5 µM | 21.3 µM | > 25 µM (inactive) | > 25 µM | > 25 µM
O=C1C(Cl)=C(NCc2ccco2)C(=O)c2ccccc21 | > 25 µM (inactive) | > 25 µM | > 25 µM | > 25 µM (inactive) | > 25 µM | > 25 µM
Cc1[nH]c2ccccc2c1C(c1ccccn1)N1CCC(C)CC1 (configuration not stated) | 21.8 µM (inactive) | 21.2 µM | 22.4 µM | 15.5 µM (inactive) | 14.8 µM | 16.2 µM
COC(=O)C1=C(C)N(Cc2ccccc2)C(=NCc2ccccc2)N[C@H]1c1ccccc1 |  | > 25 µM | 18.2 µM | > 25 µM (inactive) | > 25 µM | > 25 µM
O=C(Nc1cccc(-c2csc(Nc3ccc(Cl)cc3)n2)c1)c1cc([N+](=O)[O-])cc(C(F)(F)F)c1 | > 25 µM (inactive) | > 25 µM | > 25 µM | 13.9 µM | 13.4 µM | 14.4 µM
C=CCC[C@@H](Cc1ccc(F)cc1)C(=O)OC[C@H](Cc1c[nH]c2ccccc12)NC(=O)[C@@H](CC=C)CC(=O)N(CCO)Cc1ccccc1 | > 25 µM (inactive) | > 25 µM | > 25 µM | 13.1 µM | 10.7 µM | 15.4 µM
NC(Cc1ccc(F)cc1)c1csc(Nc2ccc(C(F)(F)F)cn2)n1 (configuration not stated) |  | > 25 µM | 23.8 µM |  | > 25 µM | 8.35 µM
CC(C)(C)OC(=O)N(CCc1ccccc1)Cc1ccccc1OCc1cccc(NC(=O)/C=C/c2ccccc2)c1 | > 25 µM (inactive) | > 25 µM | > 25 µM | 15 µM | 21 µM | 8.93 µM
Cc1ccc(NC(=O)CSc2nc3ccc(Nc4nc(N5CCOCC5)nc(N5CCOCC5)n4)cc3s2)cc1 |  | > 25 µM | > 25 µM | 3.8 µM | 4.85 µM | 2.76 µM

Structure (SMILES) | IC50 cytotoxicity (DAPI nuclear signal decrease) ([1]; mean of runs) | IC50 cytotoxicity (DAPI nuclear signal decrease) ([1]; run 1) | IC50 cytotoxicity (DAPI nuclear signal decrease) ([1]; run 2) | IC50 ([2]; mean of runs) | IC50 ([2]; run 1) | IC50 ([2]; run 2)
Nc1ccccc1C#Cc1ccccc1 | > 25 µM (inactive) | > 25 µM | > 25 µM | 10.9 µM | 8.79 µM | 13.1 µM
COc1cc(/C=C/CN2CCC(C(=O)NC(c3ccc(F)cc3)c3ccc4ccccc4n3)CC2)ccc1OC(C)=O (configuration not stated) | > 25 µM (inactive) | > 25 µM | > 25 µM | 11.6 µM | 13.3 µM | 9.99 µM
COc1ccc(CN(C)C[C@@H]2OCCCC[C@H](C)Oc3ccc(NC(=O)Nc4ccc(F)cc4)cc3C(=O)N([C@H](C)CO)C[C@H]2C)cc1 | > 25 µM (inactive) | > 25 µM | > 25 µM |  | 21.8 µM | > 25 µM
C#CCN(C[C@@H]1[C@@H](OC(=O)NCc2ccco2)[C@@H](OC(=O)NCc2ccco2)CN(C(=O)OC(C)C)N1C(=O)OC(C)C)S(=O)(=O)c1ccc(C)cc1 |  | 16.5 µM | > 25 µM | 15.1 µM (inactive) | 16.2 µM | 14 µM
Nc1ccccc1Nc1cccc(C(F)(F)F)c1 | > 25 µM (inactive) | > 25 µM | > 25 µM | 11.2 µM | 9.51 µM | 12.9 µM
Nc1c(C(=O)Nc2ccccc2)c2nc3ccccc3nc2n1CCCN1CCOCC1 |  | > 25 µM | > 25 µM | 4.64 µM | 4.97 µM | 4.31 µM
CNC(=O)c1ccc(-c2sc3nc(N4CCOCC4)c4c(c3c2N)CC(C)(C)OC4)o1 | > 25 µM (inactive) | > 25 µM | > 25 µM | 9.7 µM | 13.1 µM | 6.33 µM
CC1(C(=O)NCc2ccccc2)Cc2c(-c3cccc(C(N)=O)c3)ccnc2O1 (configuration not stated) | > 25 µM (inactive) | > 25 µM | > 25 µM |  | 20.9 µM | > 25 µM
O=C(NCC(c1ccc(F)cc1)N1CCOCC1)c1ccc([N+](=O)[O-])o1 (configuration not stated) | 19.7 µM (inactive) | 19.7 µM | 19.6 µM | > 25 µM (inactive) | > 25 µM | > 25 µM
O=C(CSc1nc2ccc(Nc3nc(N4CCOCC4)nc(N4CCOCC4)n3)cc2s1)Nc1ccccc1Cl | > 25 µM (inactive) | > 25 µM | > 25 µM | 8.88 µM | 7.69 µM | 10.1 µM
O=C1NC(Cc2ccc(O)cc2)c2nc3ccc(F)cc3c(=O)n2-c2cc3ccccc3cc21 (configuration not stated) |  | > 25 µM | > 25 µM | 2.45 µM | 2.11 µM | 2.79 µM
Cc1ccc(/C=N/NC(=O)Cc2c[nH]c3ccccc23)c(C)c1 | > 25 µM (inactive) | > 25 µM | > 25 µM |  | 19.8 µM | > 25 µM
CCN1CCN(Cc2ccc(NC(=O)c3ccc(C)c(NC(=O)C(=O)c4c[nH]c5ccccc45)c3)cc2C(F)(F)F)CC1 | 23.8 µM (inactive) | 24.4 µM | 23.1 µM | 4.98 µM | 6.17 µM | 3.8 µM
O=C(/C=C/c1ccc(OCCCF)cc1)NCc1ccc(Cl)c(Cl)c1 | > 25 µM (inactive) | > 25 µM | > 25 µM |  | > 25 µM | 21.3 µM
COc1ccc(NS(=O)(=O)c2cc(C)ccc2NC(=O)c2cc(C)oc2C)cc1 | > 25 µM (inactive) | > 25 µM | > 25 µM | 8.59 µM | 9.83 µM | 7.35 µM
CSC1=NC(C(Cl)(Cl)Cl)N=C(c2ccc(C)cc2)N1 (configuration not stated) | > 25 µM (inactive) | > 25 µM | > 25 µM | > 25 µM (inactive) | > 25 µM | > 25 µM
COc1cc2c3c(cccc3c1)C(=O)N(CCN1CCCC1)C2=O | > 25 µM (inactive) | > 25 µM | > 25 µM | 7.94 µM | 8.07 µM | 7.8 µM
